In the first series the test system is A549 cells. Description: Cellular proliferation/cytotoxicity assay (Alamar Blue), A549 cells. The conditions noted are these: Homo sapiens, A549, 72 h, read-out: Anti-proliferative/Cytotoxic activity (A549 cells). On the technique in general: The colour change of resazurin is a common sign of viable cells or microbes.
`c1ccc(-c2nnc(C3CCN(Cc4ccc(-c5nc6sccn6c5-c5ccccc5)cc4)CC3)[nH]2)cc1` [Example 122, 5-phenyl-6-(4-{[4-(5-phenyl-4H-1,2,4-triazol-3-yl)piperidin-1-yl]methyl}phenyl)imidazo[2,1-b][1,3]thiazole]: the IC50 is less than 10 µM.

`c1ccc(-c2c(-c3ccc(CN4CCC(c5n[nH]c(-c6ccccn6)n5)CC4)cc3)nc3cnccn23)cc1` [Example 37, 3-phenyl-2-(4-{[4-(5-pyridin-2-yl-1,2,4-triazol-3-yl)piperidin-1-yl]methyl}phenyl)imidazo[1,2-a]pyrazine]: the IC50 is greater than 10 µM.

Take `c1ccc(-c2nc(C3CCN(Cc4ccc(-c5nc6ncccn6c5-c5ccsc5)cc4)CC3)n[nH]2)nc1` [Example 34, 2-(4-{[4-(5-pyridin-2-yl-1,2,4-triazol-3-yl)piperidin-1-yl]methyl}phenyl)-3-(3-thienyl)imidazo[1,2-a]pyrimidine]: the IC50 is greater than 10 µM.

Regarding `Brc1ccc2nc(-c3ccc(CN4CCC(c5n[nH]c(-c6ccccn6)n5)CC4)cc3)c(-c3ccccc3)n2c1` [Example 6, 6-bromo-3-phenyl-2-(4-{[4-(5-pyridin-2-yl-1,2,4-triazol-3-yl)piperidin-1-yl]methyl}phenyl)imidazo[1,2-a]pyridine], the IC50 was less than 10 µM.

On to `Cc1ccn2c(-c3ccccc3)c(-c3ccc(CN4CCC(c5nnc(-c6ccccn6)[nH]5)CC4)cc3)nc2c1` [Example 50, 7-methyl-3-phenyl-2-[4-({4-[5-(pyridin-2-yl)-4H-1,2,4-triazol-3-yl]piperidin-1-yl}methyl)phenyl]imidazo[1,2-a]pyridine], for which the IC50 was greater than 10 µM.

As to `Cc1cccc(-c2nnc(C3CCN(Cc4ccc(-c5nc6ccc(C)nn6c5-c5ccccc5)cc4)CC3)[nH]2)n1` [Example 69, 6-methyl-2-[4-({4-[5-(6-methylpyridin-2-yl)-4H-1,2,4-triazol-3-yl]piperidin-1-yl}methyl)phenyl]-3-phenylimidazo[1,2-b]pyridazine], the IC50 is less than 10 µM.

For `COC(O)c1cn2c(-c3ccccc3)c(-c3ccc(CN4CCC(c5n[nH]c(-c6ccccn6)n5)CC4)cc3)nc2s1` (stereo not drawn) [Example 126, methoxy[5-phenyl-6-(4-{[4-(5-pyridin-2-yl-1H-1,2,4-triazol-3-yl)piperidin-1-yl]methyl}phenyl)imidazo[2,1-b][1,3]thiazol-2-yl]methanol], the IC50 was less than 10 µM.

Take `N#Cc1ccn2c(-c3ccccc3)c(-c3ccc(CN4CCC(c5n[nH]c(-c6ccccn6)n5)CC4)cc3)nc2c1` [Example 29, 3-phenyl-2-(4-{[4-(5-pyridin-2-yl-1,2,4-triazol-3-yl)piperidin-1-yl]methyl}phenyl)imidazo[1,2-a]pyridine-7-carbonitrile]: the IC50 is greater than 10 µM.

With `Brc1cccn2c(-c3ccccc3)c(-c3ccc(CN4CCC(c5n[nH]c(-c6ccccn6)n5)CC4)cc3)nc12` [Example 25, 8-bromo-3-phenyl-2-(4-{[4-(5-pyridin-2-yl-1,2,4-triazol-3-yl)piperidin-1-yl]methyl}phenyl)imidazo[1,2-a]pyridine], the IC50 is less than 10 µM.

As to `COc1nccn2c(-c3ccccc3)c(-c3ccc(CN4CCC(c5n[nH]c(-c6ccccn6)n5)CC4)cc3)nc12` [Example 27, 8-methoxy-3-phenyl-2-(4-{[4-(5-pyridin-2-yl-1,2,4-triazol-3-yl)piperidin-1-yl]methyl}phenyl)imidazo[1,2-a]pyrazine], the IC50 is less than 10 µM.

For the compound `Cc1ccn2c(-c3ccccc3)c(-c3ccc(CN4CCC(c5n[nH]c(-c6ccccn6)n5)CC4)cc3)nc2n1` [Example 19, 7-methyl-3-phenyl-2-(4-{[4-(5-pyridin-2-yl-1,2,4-triazol-3-yl)piperidin-1-yl]methyl}phenyl)imidazo[1,2-a]pyrimidine], the IC50 was less than 10 µM.

On to `COc1ccn2c(-c3ccccc3)c(-c3ccc(CN4CCC(c5n[nH]c(-c6ccccn6)n5)CC4)cc3)nc2n1` [Example 24, 7-methoxy-3-phenyl-2-(4-{[4-(5-pyridin-2-yl-1,2,4-triazol-3-yl)piperidin-1-yl]methyl}phenyl)imidazo[1,2-a]pyrimidine], for which the IC50 was less than 10 µM.

Staying with this series, now noted: read-out: Anti-proliferative/Cytotoxic activity (A549 cells); A549 cells, 72 h, Alamar Blue (Resazurin).
Consider `c1ccc(-c2c(-c3ccc(CN4CCC(c5n[nH]c(-c6nccs6)n5)CC4)cc3)nc3scnn23)cc1` [Example 88, ′5-phenyl-6-[4-({4-[5-(1,3-thiazol-2-yl)-1H-1,2,4-triazol-3-yl]piperidin-1-yl}methyl)phenyl]imidazo[2,1-b][1,3,4]thiadiazole], for which the IC50 was less than 10 µM.

`c1ccc(-c2c(-c3ccc(CN4CCC(c5nnc(-c6ncccn6)[nH]5)CC4)cc3)nc3ccccn23)cc1` [Example 80, ′3-phenyl-2-(4-{[4-(5-pyrimidin-2-yl-4H-1,2,4-triazol-3-yl)piperidin-1-yl]methyl}phenyl)imidazo[1,2-a]pyridine]: the IC50 was greater than 10 µM.

For `Cc1ccc2nc(-c3ccc(CN4CCC(c5nnc(-c6ccccn6)[nH]5)CC4)cc3)c(-c3ccccc3)n2n1` [Example 53, ′6-methyl-3-phenyl-2-(4-{[4-(5-pyridin-2-yl-4H-1,2,4-triazol-3-yl)piperidin-1-yl]methyl}phenyl)imidazo[1,2-b]pyridazine], the IC50 is less than 10 µM.

With `c1ccc(-c2c(-c3ccc(CN4CCC(c5n[nH]c(-c6ccncc6)n5)CC4)cc3)nc3ncccn23)cc1` [Example 55, ′3-phenyl-2-(4-{[4-(5-pyridin-4-yl-1H-1,2,4-triazol-3-yl)piperidin-1-yl]methyl}phenyl)imidazo[1,2-a]pyrimidine], the IC50 was greater than 10 µM.

Take `N#Cc1ccn2c(-c3ccccc3)c(-c3ccc(CN4CCC(c5noc(-c6ccccn6)n5)CC4)cc3)nc2c1` [Example 115, ′3-phenyl-2-(4-{[4-(5-pyridin-2-yl-1,2,4-oxadiazol-3-yl)piperidin-1-yl]methyl}phenyl)imidazo[1,2-a]pyridine-7-carbonitrile]: the IC50 is greater than 10 µM.

In the case of `Cc1ccc2nc(-c3ccc(CN4CCC(c5nnc(-c6ccco6)[nH]5)CC4)cc3)c(-c3ccccc3)n2n1` [Example 92, ′2-[4-({4-[5-(2-furyl)-4H-1,2,4-triazol-3-yl]piperidin-1-yl}methyl)phenyl]-6-methyl-3-phenylimidazo[1,2-b]pyridazine], the IC50 was less than 10 µM.

`c1ccc(-c2c(-c3ccc(CN4CCC(c5nnc(-c6ccncc6)[nH]5)CC4)cc3)nc3sccn23)cc1` [Example 56, ′5-phenyl-6-(4-{[4-(5-pyridin-4-yl-4H-1,2,4-triazol-3-yl)piperidin-1-yl]methyl}phenyl)imidazo[2,1-b][1,3]thiazole]: the IC50 is less than 10 µM.

Consider `c1ccc(-c2c(-c3ccc(CN4CCC(c5nnc(-c6ccco6)[nH]5)CC4)cc3)nc3ncccn23)cc1` [Example 95, ′2-[4-({4-[5-(2-furyl)-4H-1,2,4-triazol-3-yl]piperidin-1-yl}methyl)phenyl]-3-phenylimidazo[1,2-a]pyrimidine], for which the IC50 was greater than 10 µM.

Turning to `N#Cc1ccn2c(-c3ccccc3)c(-c3ccc(CN4CCC(c5nnc(-c6ccco6)[nH]5)CC4)cc3)nc2c1` [Example 96, ′2-[4-({4-[5-(2-furyl)-4H-1,2,4-triazol-3-yl]piperidin-1-yl}methyl)phenyl]-3-phenylimidazo[1,2-a]pyridine-7-carbonitrile], the IC50 was less than 10 µM.
